From publication PMC11455612 (Cell, 2024)

Tests used:
[1] = target: phosphatidylserine synthase 1 (PSS1) (Homo sapiens, UniProt P48651, P269S); assay type: biochemical
[2] = target: phosphatidylserine synthase 1 (PSS1) (Homo sapiens, UniProt P48651); assay: cryo-EM structure at […] Å; assay type: biochemical

CC(F)(F)CN1C(=O)c2[nH]nc(-c3cccc4[nH]c(=O)oc34)c2[C@@H]1c1ccc(Oc2cc(C(F)(F)F)cc(C(F)(F)F)c2)cc1 [DS, DS55980254]
IC50 [1]: 1270 nM | IC50 [2]: 1650 nM
